The subject of the data set is mouse melanoma B-16 cells. In words: Inhibitory effect on melanin synthesis. Type of data set: cell-based. The protocol: In order to confirm the inhibition effect of the compounds prepared in Examples 1 to 31 and hydroquinone on melanin biosynthesis, the experiment was performed with the procedure described in the literature (Lotan R., Lotan D. Cancer Res., 40, pp. 3345-3350, 1980).
[…] The medium was cultured for 3 days and the cultured cells were separated from the medium by treating with trypsin. The separated cells were centrifuged and the melanin was extracted therefrom. The extract was treated with 1 ml of sodium hydroxide solution (1N) and boiled for 10 mins to resolve the melanin. Optical density (OD) value was measured 3 times at 475 nm by a spectrophotometer and the amount of melanin was expressed by absorbance(OD)/1×10^6 cells. The inhibitory effect of melanin (%) was calculated from the melanin synthesis as compared with the control group.

The mark [1] stands for this setting: Mus musculus, B16, 72 h, concentration 5 ug/ml, B-16 cells cultured 3 days, vs control group.
[2] abbreviates: Mus musculus, B16, 72 h, concentration 20 ug/ml, B-16 cells cultured 3 days, vs control group.
Setting [3] is: concentration 5 ug/ml, B-16 cells cultured 3 days, vs control group.
[4] abbreviates: concentration 20 ug/ml, B-16 cells cultured 3 days, vs control group.
Where [5] appears, read: mouse B-16 melanoma cells, statement in words.

The inhibition is the share of the control response that was lost under treatment. Regarding `CC(C)=CC(=O)OC1COCC1OC(=O)C=C(C)C` (stereo not drawn) [Example 22, 3-methyl-2-butenoic acid 4-(3-methyl-2-butenoyloxy)-tetrahydrofuran-3-yl ester], at 5 µg/mL the inhibition under setting [1] was 27%. For the same molecule, the inhibition at 20 µg/mL under setting [2] worked out at 49%.

On to `CCCCCCCC(=O)OC1CCCC(OC(=O)CCCCCCC)C1OC(=O)CCCCCCC` (stereo not drawn) [Example 24, octanoic acid 2,3-bis-octanoyloxy-cyclohexyl ester], for which testing at 5 µg/mL under setting [1] gave an inhibition of 39%. This molecule registered an inhibition at 20 µg/mL under setting [2] of 69%.

With `CC(C)=CC(=O)O[C@@H]1CCCC[C@H]1OC(=O)C=C(C)C` (relative stereo) [Example 3, 3-methyl-2-butenoic acid 2-(3-methyl-2-butenoyloxy)-trans-cyclohexyl ester], the inhibition at 5 µg/mL under setting [1] amounted to 39%. Also, the inhibition at 20 µg/mL under setting [2] is 72%.

The molecule `CCCCCCCC(=O)Oc1cccnc1OC(=O)CCCCCCC` [Example 21, octanoic acid 3-octanoyloxy-pyridin-2-yl ester] registered an inhibition at 5 µg/mL under setting [1] of 48%. The inhibition at 20 µg/mL under setting [2] was 81%.

Under setting [1], `CCCCCC(=O)O[C@@H]1CCCC[C@H]1OC(=O)CCCCC` (relative stereo) [Example 4, hexanoic acid 2-hexanoyloxy-trans-cyclohexyl ester] gave an inhibition at 5 µg/mL of 41%. Under setting [2], this molecule had an inhibition at 20 µg/mL of 71%.

`CCCCCCCCCCCC(=O)O[C@@H]1CCCC[C@H]1OC(=O)CCCCCCCCCCC` (relative stereo) [Example 10, lauric acid 2-lauroyloxy-trans-cyclohexyl ester]: the inhibition at 5 µg/mL under setting [1] was determined as 9%. Besides, at 20 µg/mL the inhibition under setting [2] was 15%.

With `CCCC(=O)OC1C(OC(=O)CCC)C(OC(=O)CCC)C(OC(=O)CCC)C(OC(=O)CCC)C1OC(=O)CCC` (stereo not drawn) [Example 25, myo-inositol hexa-O-butanoate], the “Melanin synthesis inhibition (%)” value under setting [3] worked out at 27% and the “Melanin synthesis inhibition (%)” value under setting [4] came out at 59%.

In the case of `CCCCCCC(=O)O[C@@H]1CCCC[C@H]1OC(=O)CCCCCC` (relative stereo) [Example 5, heptanoic acid 2-heptanoyloxy-trans-cyclohexyl ester], the inhibition at 5 µg/mL under setting [1] was 35%. The inhibition at 20 µg/mL under setting [2] turned out to be 56%.

For the molecule `CCCCCCCC(=O)O[C@@H]1CCC[C@H]1OC(=O)CCCCCCC` (relative stereo) [Example 13, octanoic acid 2-octanoyloxy-trans-cyclopentyl ester], under setting [1], the inhibition at 5 µg/mL was 30%. Further, the inhibition at 20 µg/mL under setting [2] came to 54%.

`CCCCCCCC(=O)Oc1cc2ccccc2cc1OC(=O)CCCCCCC` [Example 19, octanoic acid 3-octanoyloxy-naphthalen-2-yl ester] had an inhibition at 5 µg/mL under setting [1] of 39%. This molecule also had an inhibition at 20 µg/mL under setting [2] of 61%.

For “butyric acid 3-methyl-2-butenoic acid 2,3-bis-(3-methyl-2-butenoyloxy)-phenyl ester [Example 23]”, the “Melanin synthesis inhibition (%)” value under setting [3] is on record as 48% and the “Melanin synthesis inhibition (%)” value under setting [4] stood at 75%.

Consider `CCCCCCCCC(=O)O[C@@H]1CCCC[C@H]1OC(=O)CCCCCCCC` (relative stereo) [Example 8, nonanoic acid 2-nonanoyloxy-trans-cyclohexyl ester], for which at 5 µg/mL the inhibition under setting [1] was 21%. Under setting [2], 20 µg/mL produced 47% inhibition.

Under setting [1], `CCCCCCCC(=O)Oc1ccccc1OC(=O)CCCCCCC` [Example 17, octanoic acid 2-octanoyloxy-phenyl ester] registered an inhibition at 5 µg/mL of 9%. In addition, under setting [2], the inhibition at 20 µg/mL was determined as 18%.

`CCCCCCCCOC1CCCCC1OCCCCCCCC` (stereo not drawn) [Example 31, 1,2-bis-octyloxy-cyclohexane] gave an inhibition at 5 µg/mL under setting [1] of 15%. For the same molecule, under setting [2], at 20 µg/mL the inhibition was 31%.

Regarding `CCCCC(CC)C(=O)O[C@@H]1CCC[C@H]1OC(=O)C(CC)CCCC` (relative stereo) [Example 14, 2-ethyl-hexanoic acid 2-(2-ethyl-hexanoyloxy)-trans-cyclopentyl ester], under setting [1], the inhibition at 5 µg/mL is 31%. The same molecule returned an inhibition at 20 µg/mL under setting [2] of 57%.

Molecule `CCCC(=O)O[C@@H]1CCCC[C@H]1OC(=O)CCC` (relative stereo) [Example 1, butyric acid 2-butyryloxy-trans-cyclohexyl ester] showed an inhibition at 5 µg/mL under setting [1] of 30%. In addition, under setting [2], the inhibition at 20 µg/mL turned out to be 55%.

For `CCCCCOC1CCCCC1OCCCCC` (stereo not drawn) [Example 29, 1,2-bis-pentyloxy-cyclohexane], under setting [1], the inhibition at 5 µg/mL was 22%. Under setting [2], this molecule had an inhibition at 20 µg/mL of 43%.

Consider `C=CCCC(=O)O[C@@H]1CCCC[C@H]1OC(=O)CCC=C` (relative stereo) [Example 15, 4-pentenoic acid 2-(4-pentenoyloxy)-trans-cyclohexyl ester], for which the inhibition at 5 µg/mL under setting [1] came out at 39%. Further, the inhibition at 20 µg/mL under setting [2] came out at 72%.

The molecule `CCCCCCOC1CCCCC1OCCCCCC` (stereo not drawn) [Example 30, 1,2-bis-hexyloxy-cyclohexane] gave an inhibition at 5 µg/mL under setting [1] of 18%. In addition, testing at 20 µg/mL under setting [2] gave an inhibition of 41%.

`CC(C)=CC(=O)Oc1cc2ccccc2cc1OC(=O)C=C(C)C` [Example 18, 3-methyl-2-butenoic acid 3-(3-methyl-2-butenoyloxy)-naphthalen-2-yl ester] yielded an inhibition at 5 µg/mL under setting [1] of 47%. 20 µg/mL produced 67% inhibition under setting [2].

Turning to `CCCCC(CC)C(=O)Oc1cc2ccccc2cc1OC(=O)C(CC)CCCC` (stereo not drawn) [Example 20, 2-ethyl-hexanoic acid 3-(2-ethyl-hexanoyloxy)-naphthalen-2-yl ester], the inhibition at 5 µg/mL under setting [1] was determined as 29%. Under setting [2], this molecule yielded an inhibition at 20 µg/mL of 55%.

Turning to `CC(C)=CC(=O)O[C@@H]1CCC[C@H]1OC(=O)C=C(C)C` (relative stereo) [Example 12, 3-methyl-2-butenoic acid 2-(3-methyl-2-butenoyloxy)-trans-cyclopentyl ester], the inhibition at 5 µg/mL under setting [1] turned out to be 27%. This molecule also returned an inhibition at 20 µg/mL under setting [2] of 56%.

Regarding `CC(C)CCOC1CCCCC1OCCC(C)C` (stereo not drawn) [Example 28, 1,2-bis-(3-methyl-buthoxy)-cyclohexane], the “Melanin synthesis inhibition (%)” value reads like this: under setting [3], 25%; under setting [4], 49%.

For the molecule `CCCCC(CC)C(=O)O[C@@H]1CCCC[C@H]1OC(=O)C(CC)CCCC` (relative stereo) [Example 7, 2-ethyl-hexanoic acid 2-(2-ethyl-hexanoyloxy)-trans-cyclohexyl ester], under setting [1], the inhibition at 5 µg/mL was found to be 42%. For the same molecule, at 20 µg/mL the inhibition under setting [2] was 69%.

Regarding `CC(C)=CC(=O)O[C@H]1CCCC[C@H]1OC(=O)C=C(C)C` [Example 11, 3-methyl-2-butenoic acid 2-(3-methyl-2-butenoyloxy)-cis-cyclohexyl ester], the inhibition at 5 µg/mL under setting [1] came out at 31%. Under setting [2], this molecule showed an inhibition at 20 µg/mL of 54%.

For `CC(C)=CC(=O)OC1OC[C@@H](OC(=O)C=C(C)C)[C@@H](OC(=O)C=C(C)C)[C@@H]1OC(=O)C=C(C)C` (stereo partly drawn) [Example 26], the “Melanin synthesis inhibition (%)” value amounted to 31% under setting [3] and 61% under setting [4].

Molecule `CC(C)=CC(=O)Oc1ccccc1OC(=O)C=C(C)C` [Example 16, 3-methyl-2-butenoic acid 2-(3-methyl-2-butenoyloxy)-phenyl ester] had an inhibition at 5 µg/mL under setting [1] of 15%. In addition, under setting [2], the inhibition at 20 µg/mL is 27%.

`CCCCC(=O)O[C@@H]1CCCC[C@H]1OC(=O)CCCC` (relative stereo) [Example 2, pentanoic acid 2-pentanoyloxy-trans-cyclohexyl ester] had an inhibition at 5 µg/mL under setting [1] of 45%. The same molecule had an inhibition at 20 µg/mL under setting [2] of 78%.

Turning to `CCCC(=O)OC[C@H]1O[C@H](OC)[C@H](OC(=O)CCC)[C@@H](OC(=O)CCC)[C@@H]1OC(=O)CCC` [Example 27, methyl-alpha-D-glucose tetra-O-butanoate], the “Melanin synthesis inhibition (%)” value reads like this: under setting [3], 29%; under setting [4], 49%.

With `CCCCCCCC(=O)O[C@@H]1CCCC[C@H]1OC(=O)CCCCCCC` (relative stereo) [Example 6, octanoic acid 2-octanoyloxy-trans-cyclohexyl ester], under setting [1], the inhibition at 5 µg/mL turned out to be 30%. Testing at 20 µg/mL under setting [2] gave an inhibition of 51%.

In the case of `Oc1ccc(O)cc1` [Hydroquinone, reference compound], the inhibition at 1 µg/mL (Mus musculus, B16, 72 h, concentration 1 ug/ml, B-16 cells cultured 3 days, vs control group) amounted to 45%. The “Melanin synthesis inhibition (%)” value under setting [3] is “Cell death”. Under setting [5], the cytotoxicity result is on record as “high levels of cytotoxicity” and the “inhibitory activity of melanin synthesis” value is “potent inhibitory activity at low concentration”.

`CCCCCCCCCC(=O)O[C@@H]1CCCC[C@H]1OC(=O)CCCCCCCCC` (relative stereo) [Example 9, decanoic acid 2-decanoyloxy-trans-cyclohexyl ester]: testing at 5 µg/mL under setting [1] gave an inhibition of 19%. The same molecule returned an inhibition at 20 µg/mL under setting [2] of 39%.

The record behind these values is patent US8420853B2, “Derivatives of cyclic compound and the use thereof” (Wonkisopharm Co., Ltd, priority 2006, dated 2013).
